From patent publication EP2058306A1, “Heteroaryl-substituted 2-pyridinyl-methylamine derivatives” (SCHWARZ PHARMA AG, priority 2007, dated 2009)
Read-outs that look alike come from different tables or passages of the source.

Key:
dopamine D1 receptor = molecular target: T1, dopamine D1 receptor (Sus scrofa, UniProt P50130); test: radioligand binding assay, dopamine D1 receptor, [3H]SCH 23390; conditions: porcine striatum membranes, mean of two to five experiments in triplicate, read-out: Ki D1
T1 construct: native membrane preparations from porcine striatum; from tissue; host or cells: porcine striatum
T1 sequence (P50130 whole entry): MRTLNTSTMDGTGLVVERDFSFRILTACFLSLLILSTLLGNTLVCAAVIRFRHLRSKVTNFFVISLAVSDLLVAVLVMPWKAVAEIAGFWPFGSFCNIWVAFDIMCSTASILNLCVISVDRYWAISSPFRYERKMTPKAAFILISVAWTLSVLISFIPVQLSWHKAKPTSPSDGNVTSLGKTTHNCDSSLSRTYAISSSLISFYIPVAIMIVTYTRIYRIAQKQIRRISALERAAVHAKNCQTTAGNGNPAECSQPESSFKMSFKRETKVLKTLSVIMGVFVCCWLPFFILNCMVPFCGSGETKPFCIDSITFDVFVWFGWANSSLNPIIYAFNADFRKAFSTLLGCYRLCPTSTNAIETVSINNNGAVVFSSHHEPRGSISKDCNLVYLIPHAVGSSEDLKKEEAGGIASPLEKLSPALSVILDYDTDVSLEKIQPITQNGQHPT
Text: (§1) Biological activity of the compounds has been determined in radioligand binding assays. These experiments have been done according to methods which are described in literature (Hübner, H. et al., J. Med. Chem. (2000), 43, 7562). For the determination of binding affinity to the receptors of the dopamine D2 family membranes were established carrying the human D2long, D2short, D3 or D4.4 receptor subtype stably expressed in Chinese hamster ovary cell lines. In principle, the binding experiments started when incubating an appropriate amount of membrane with the radioligand [^3H]spiperone and the particular test compounds used in a wide range of different concentrations from subnanomolar up to micromolar ones. In the same way, binding affinities of the test compounds to the dopamine D1 receptor were determined when using native membrane preparations from porcine striatum and the D1 selective radioligand [^3H]SCH 23390.
(§2) The results of the binding experiments are summarized in Table 1 as mean values of two to five individual experiments each done in triplicate and expressed as Ki values in nM.

human D2long, D2short = human D2long, D2short (Homo sapiens, UniProt P14416); test: biochemical; type: binding; conditions: CHO cell membranes, [3H]spiperone; mean of two to five experiments in triplicate; read-out: Ki D2
human D2long, D2short, sequence (P14416 whole entry): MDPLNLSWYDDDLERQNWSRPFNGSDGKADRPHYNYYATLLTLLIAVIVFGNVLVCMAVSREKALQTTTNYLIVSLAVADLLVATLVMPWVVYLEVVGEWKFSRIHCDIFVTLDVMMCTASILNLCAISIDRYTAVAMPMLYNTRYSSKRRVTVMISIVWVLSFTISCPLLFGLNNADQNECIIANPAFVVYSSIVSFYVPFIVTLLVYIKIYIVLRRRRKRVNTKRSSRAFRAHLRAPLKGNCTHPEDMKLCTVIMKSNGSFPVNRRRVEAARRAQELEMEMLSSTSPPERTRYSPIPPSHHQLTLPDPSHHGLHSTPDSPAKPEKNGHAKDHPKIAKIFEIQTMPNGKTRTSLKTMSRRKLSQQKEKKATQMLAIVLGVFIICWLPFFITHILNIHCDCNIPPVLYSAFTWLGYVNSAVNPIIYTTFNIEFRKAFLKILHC
Procedure: as §1, with “These” for “Biological activity of the compounds has been determined in radioligand binding assays. These”, “ones.” for “ones. In the same way, binding affinities of the test compounds to the dopamine D1 receptor were determined when using native membrane preparations from porcine striatum and the D1 selective radioligand [^3H]SCH 23390.”

human D3 = human D3 (Homo sapiens, UniProt P35462); test: radioligand binding assay, dopamine D3 receptor, [3H]spiperone; conditions: CHO cell membranes, mean of two to five experiments in triplicate, read-out: Ki D3
human D3, sequence (P35462 whole entry): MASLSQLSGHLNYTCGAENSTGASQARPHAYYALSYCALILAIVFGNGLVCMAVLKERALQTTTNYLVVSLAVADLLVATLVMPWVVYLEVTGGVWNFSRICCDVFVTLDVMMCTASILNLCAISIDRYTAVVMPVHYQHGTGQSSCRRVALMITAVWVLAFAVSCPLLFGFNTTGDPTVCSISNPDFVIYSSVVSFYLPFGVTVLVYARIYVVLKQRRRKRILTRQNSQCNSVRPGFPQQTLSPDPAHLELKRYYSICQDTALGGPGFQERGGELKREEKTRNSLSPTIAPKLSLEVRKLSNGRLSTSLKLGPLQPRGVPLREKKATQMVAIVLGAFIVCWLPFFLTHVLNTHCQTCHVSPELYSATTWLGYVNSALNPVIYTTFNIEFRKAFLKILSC
Procedure: as §1, with “These” for “Biological activity of the compounds has been determined in radioligand binding assays. These”, “ones.” for “ones. In the same way, binding affinities of the test compounds to the dopamine D1 receptor were determined when using native membrane preparations from porcine striatum and the D1 selective radioligand [^3H]SCH 23390.”

human D4.4 = molecular target: T2, human D4.4 (Homo sapiens, UniProt P21917); test: radioligand binding assay, dopamine D4.4 receptor, [3H]spiperone; conditions: CHO cell membranes, mean of two to five experiments in triplicate, read-out: Ki D4.4
T2 sequence (P21917 1-419): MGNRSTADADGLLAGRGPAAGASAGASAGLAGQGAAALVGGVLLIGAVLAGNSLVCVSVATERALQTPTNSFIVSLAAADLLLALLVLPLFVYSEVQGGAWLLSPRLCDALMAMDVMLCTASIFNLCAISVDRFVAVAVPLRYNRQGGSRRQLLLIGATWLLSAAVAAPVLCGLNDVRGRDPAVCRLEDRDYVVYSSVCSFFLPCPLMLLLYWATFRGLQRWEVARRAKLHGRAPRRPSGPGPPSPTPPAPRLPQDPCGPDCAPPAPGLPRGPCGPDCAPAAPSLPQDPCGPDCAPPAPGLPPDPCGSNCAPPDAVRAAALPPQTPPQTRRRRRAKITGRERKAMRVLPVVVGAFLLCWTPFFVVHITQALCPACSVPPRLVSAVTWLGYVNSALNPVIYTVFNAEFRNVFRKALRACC
Text: as §1, §2

5-HT1A = molecular target: T3, 5-HT1A (Sus scrofa, UniProt A0A4X1UTF5); test: radioligand binding assay, serotonin 5-HT1A receptor, [3H]WAY 100635; conditions: porcine cortex membranes, mean of two to five experiments in triplicate, read-out: Ki 5-HT1a
T3 construct: membrane preparations from porcine cortex; from tissue; host or cells: porcine cortex
T3 sequence (A0A4X1UTF5 1-422): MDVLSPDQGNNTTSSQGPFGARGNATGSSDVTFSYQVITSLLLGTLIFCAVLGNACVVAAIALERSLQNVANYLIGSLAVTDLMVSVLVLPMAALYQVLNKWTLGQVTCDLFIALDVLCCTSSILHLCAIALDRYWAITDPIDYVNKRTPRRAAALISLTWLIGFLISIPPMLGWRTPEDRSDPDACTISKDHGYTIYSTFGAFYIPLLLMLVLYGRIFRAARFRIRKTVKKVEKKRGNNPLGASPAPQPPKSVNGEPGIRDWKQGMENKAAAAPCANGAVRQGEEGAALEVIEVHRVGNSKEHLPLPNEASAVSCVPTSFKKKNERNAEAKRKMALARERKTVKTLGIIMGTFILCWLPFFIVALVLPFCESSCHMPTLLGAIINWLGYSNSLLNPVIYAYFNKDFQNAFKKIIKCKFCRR
Procedure: (§3) The investigation of receptor binding to the serotonin and adrenergic receptors was done according to a published procedure (Heindl, C. et al., Tetrahedron: Asymmetry (2003), 14, 3141-3152). In detail, for the determination of the binding properties to serotonin receptors membrane preparations from porcine cortex was incubated with the 5-HT1A selective radioligand [^3H]WAY 100635 or with the 5-HT2 selective compound [^3H]ketanserin. The measurement of alpha-1 and alpha-2 receptor binding was achieved when utilizing porcine cortical membranes and the selective radioligands [^3H]prazosin (for alpha-1) and [^3H]RX821002 in an assay similar to that described above.
as §2

5-HT2 = molecular target: T4, 5-HT2 (Sus scrofa, UniProt P50129); test: radioligand binding assay, serotonin 5-HT2 receptor, [3H]ketanserin; design: species or system porcine
T4 construct: membrane preparations from porcine cortex; from tissue; host or cells: porcine cortex
T4 sequence (P50129 whole entry): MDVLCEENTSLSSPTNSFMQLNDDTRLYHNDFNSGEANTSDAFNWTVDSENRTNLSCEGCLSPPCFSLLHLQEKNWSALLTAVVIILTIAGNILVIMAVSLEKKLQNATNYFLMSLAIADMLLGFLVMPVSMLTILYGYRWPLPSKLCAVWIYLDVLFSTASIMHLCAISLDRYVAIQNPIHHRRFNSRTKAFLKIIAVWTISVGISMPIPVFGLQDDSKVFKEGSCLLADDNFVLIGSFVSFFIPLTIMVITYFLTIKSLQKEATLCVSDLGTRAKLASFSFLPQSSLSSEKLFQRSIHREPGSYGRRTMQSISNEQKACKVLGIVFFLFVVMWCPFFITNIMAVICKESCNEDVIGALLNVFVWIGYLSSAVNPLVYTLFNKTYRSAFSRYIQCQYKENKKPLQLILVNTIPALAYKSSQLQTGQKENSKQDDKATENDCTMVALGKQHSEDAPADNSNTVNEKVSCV

alpha-1 = test: radioligand binding assay, adrenergic alpha-1 receptor, [3H]prazosin; conditions: porcine cortical membranes, mean of two to five experiments in triplicate, read-out: Ki alpha1
Procedure: as §3, §2

human 5-HT1A receptor = molecular target: T5, human 5-HT1A receptor (Homo sapiens, UniProt P08908); test: [35S]GTPγS assay of functional activity at the 5-HT1A receptor; type: biochemical; conditions: membranes from CHO cells expressing human 5-HT1A receptor; for 5-HT1A stimulated [35S]GTPγS binding intrinsic effect: % activity of serotonin; for EC50: read-out: 5-HT1A stimulated [35S]GTPγS binding EC50 value
T5 construct: expressed in transfected cells
T5 sequence (P08908 1-422): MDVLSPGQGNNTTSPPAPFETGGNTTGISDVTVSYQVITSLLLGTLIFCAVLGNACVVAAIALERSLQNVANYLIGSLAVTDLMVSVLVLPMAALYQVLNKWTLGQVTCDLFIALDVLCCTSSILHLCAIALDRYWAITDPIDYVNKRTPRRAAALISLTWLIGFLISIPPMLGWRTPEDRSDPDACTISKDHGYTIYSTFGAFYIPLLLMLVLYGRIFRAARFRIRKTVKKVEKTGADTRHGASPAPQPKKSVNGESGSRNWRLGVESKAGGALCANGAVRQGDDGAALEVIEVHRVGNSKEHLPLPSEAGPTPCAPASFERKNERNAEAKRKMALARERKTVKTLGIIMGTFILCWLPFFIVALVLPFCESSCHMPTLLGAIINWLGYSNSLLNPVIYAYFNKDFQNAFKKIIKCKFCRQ
Procedure: In detail, membranes from CHO (Chinese hamster ovary) cells stably expressing the human 5-HT1A receptor were stimulated with an increasing concentration of test compounds used in a range of subnanomolar to micromolar concentrations in the presence of radioactive [^35S]GTPγ. The amount of bound radioactivity which indicates the amount of stimulation of the receptor was determined after transferring the membranes to filters by scintillation counting. Dose response correlations could be derived and the particular stimulation of the receptor was compared to the maximum effect of the reference compound and physiological ligand serotonin.
Table 2: Intrinsic activities of the compounds of this invention at the serotonin 5-HT1A receptor determined in a [35S]GTPγS assay

[1] = cited from Maurel et al, reference (14); cited from earlier work
[2] = porcine cortex membranes, [3H]ketanserin, mean of two to five experiments in triplicate, read-out: Ki 5-HT2

Row | SMILES | Ki (dopamine D1 receptor) | Ki (human D2long, D2short) | Ki (human D3) | Ki (human D4.4) | Ki (5-HT1A) | Ki (5-HT2; [2]) | Ki (alpha-1) | 5-HT1A stimulated [35S]GTPγS binding intrinsic effect (human 5-HT1A receptor) | EC50 (human 5-HT1A receptor) | Ki (5-HT2) | half-life elimination from plasma [1]
1 | Cc1ccc(CNCC2(F)CCN(C(=O)c3cccs3)CC2)nc1 [Example E1] | > 5 µM | > 5 µM | > 5 µM | > 5 µM | < 0.05 µM | > 5 µM | > 5 µM | D (D=full agonist (>75%)) | < 0.05 µM | – | –
2 | Cc1ccc(CNCC2(F)CCN(C(=O)c3sccc3Cl)CC2)nc1 [Example E3, 3-Chlorothien-2-yl-[4-fluoro-4-[[(5-methylpyridin-2-ylmethyl)amino]methyl]-piperidin-1-yl]-methanone] | > 5 µM | > 5 µM | > 5 µM | 0.501 to 5 µM | < 0.05 µM | > 5 µM | 0.501 to 5 µM | D (D=full agonist (>75%)) | < 0.05 µM | – | –
3 | Cc1ccc(CNCC2(F)CCN(C(=O)c3ccc(Cl)s3)CC2)nc1 [Example E4, 5-Chlorothien-2-yl-[4-fluoro-4-[[(5-methylpyridin-2-ylmethyl)amino]methyl]-piperidin-1-yl]-methanone] | > 5 µM | > 5 µM | > 5 µM | 0.501 to 5 µM | < 0.05 µM | > 5 µM | 0.501 to 5 µM | D (D=full agonist (>75%)) | < 0.05 µM | – | –
4 | Cc1ccc(CNCC2(F)CCN(C(=O)c3sccc3Br)CC2)nc1 [Example E5, 3-Bromothien-2-yl-[4-fluoro-4-[[(5-mothylpyridin-2-ylmethyl)amino]mothyl]-piperidin-1-yl]-methanone] | > 5 µM | > 5 µM | > 5 µM | 0.501 to 5 µM | < 0.05 µM | – | 0.501 to 5 µM | D (D=full agonist (>75%)) | < 0.05 µM | > 5 µM | –
5 | Cc1ccc(CNCC2(F)CCN(C(=O)c3cc(Br)cs3)CC2)nc1 [Example E6, 4-Bromothien-2-yl-[4-fluoro-4-[[(5-methylpyridin-2-ylmethyl)amino]methyl]-piperidin-1-yl]-methanone] | > 5 µM | > 5 µM | > 5 µM | 0.501 to 5 µM | < 0.05 µM | > 5 µM | 0.501 to 5 µM | D (D=full agonist (>75%)) | < 0.05 µM | – | –
6 | Cc1ccc(CNCC2(F)CCN(C(=O)c3ccc(Br)s3)CC2)nc1 [Example E7, 5-Bromothion-2-yl-[4-fluoro-4-[[(5-mothylpyridin-2-ylmethyl)amino]methyl]-piperidin-1-yl]-methanone] | > 5 µM | > 5 µM | > 5 µM | 0.501 to 5 µM | < 0.05 µM | – | 0.501 to 5 µM | D (D=full agonist (>75%)) | < 0.05 µM | > 5 µM | –
7 | Cc1ccc(CNCC2(F)CCN(C(=O)c3sccc3C)CC2)nc1 [Example E9, [4-Fluoro-4-[[(5-methylpyridin-2-ylmethyl)amino]methyl]piperidin-1-yl]-3-methylthien-2-yl-methanone] | > 5 µM | > 5 µM | > 5 µM | > 5 µM | < 0.05 µM | > 5 µM | > 5 µM | D (D=full agonist (>75%)) | < 0.05 µM | – | –
8 | Cc1ccc(CNCC2(F)CCN(C(=O)c3cc(C)cs3)CC2)nc1 [Example E10, [4-Fluoro-4-[[(5-methylpyridin-2-ylmethyl)amino]methyl]piparidin-1-yl]-4-methylthien-2-yl-mothanone] | > 5 µM | > 5 µM | > 5 µM | 0.501 to 5 µM | < 0.05 µM | – | 0.501 to 5 µM | D (D=full agonist (>75%)) | < 0.05 µM | > 5 µM | –
9 | Cc1ccc(CNCC2(F)CCN(C(=O)c3ccc(C)s3)CC2)nc1 [Example E11, [4-Fluoro-4-[[(5-methylpyridin-2-ylmethyl)amino]methyl]piperidin-1-yl]-5-mothylthiophon-2-yl-mothanone] | > 5 µM | > 5 µM | > 5 µM | 0.501 to 5 µM | < 0.05 µM | – | > 5 µM | D (D=full agonist (>75%)) | < 0.05 µM | > 5 µM | –
10 | Cc1ccc(CNCC2(F)CCN(C(=O)c3ccsc3)CC2)nc1 [Example E18, [4-Fluoro-4-[[(5-methylpyridin-2-ylmethyl)amino]methyl]piperidin-1-yl]-thien-3-yl-methanone] | > 5 µM | > 5 µM | > 5 µM | > 5 µM | < 0.05 µM | > 5 µM | > 5 µM | D (D=full agonist (>75%)) | < 0.05 µM | – | –
11 | Cc1ccc(CNCC2(F)CCN(C(=O)c3ccc(F)c(Cl)c3)CC2)nc1 [Example F13640, reference compound] | – | – | – | – | – | – | – | D (D=full agonist (>75%)) | – | – | 35 h
